Results: ChEMBL document CHEMBL1155466, “Structure-activity relationships of 6-methyl-benzo[b]thiophene-2-carboxylic acid (1-[(S)-1-benzyl-4-[4-(tetrahydropyran-4-ylmethyl)piperazin-1-yl]butylcarbamoyl]cyclopentyl)amide, potent antagonist of the neurokinin-2 receptor” (J Med Chem, 2010)

Assays:
Cavia porcellus = assay: Inhibition of [beta-Ala8]NKA(4-10)-induced colonic contractions in Dunkin-Hartley guinea pig at 3 umol/kg, iv after 4 hrs relative to control; assay type: functional
Substance-K receptor = biological target: T1, Substance-K receptor (Homo sapiens, UniProt P21452); assay: Displacement of [3H]neurokinin A from human NK2 receptor
T1 sequence (P21452 whole entry): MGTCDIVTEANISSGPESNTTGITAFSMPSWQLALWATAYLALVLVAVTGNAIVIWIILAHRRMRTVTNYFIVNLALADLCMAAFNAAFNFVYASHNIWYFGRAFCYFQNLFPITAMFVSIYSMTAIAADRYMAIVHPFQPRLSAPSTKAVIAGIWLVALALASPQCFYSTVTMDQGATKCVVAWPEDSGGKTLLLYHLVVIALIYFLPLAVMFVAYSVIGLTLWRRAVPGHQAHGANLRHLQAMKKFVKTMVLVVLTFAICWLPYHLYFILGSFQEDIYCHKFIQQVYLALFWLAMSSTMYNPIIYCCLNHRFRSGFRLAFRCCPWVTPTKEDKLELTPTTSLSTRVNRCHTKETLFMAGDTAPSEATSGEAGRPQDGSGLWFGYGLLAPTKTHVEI

[1] = biological target: T2, Substance-K receptor (Cavia porcellus) (UniProt Q64077); assay: Antagonist activity at NK2 receptor in Dunkin-Hartley guinea pig colon smooth muscle assessed as inhibition of [beta-Ala8]NKA(4-10)-induced tissue contraction in presence of NK1 receptor antagonist SR-140333; assay type: functional, tissue-based
T2 sequence (whole entry): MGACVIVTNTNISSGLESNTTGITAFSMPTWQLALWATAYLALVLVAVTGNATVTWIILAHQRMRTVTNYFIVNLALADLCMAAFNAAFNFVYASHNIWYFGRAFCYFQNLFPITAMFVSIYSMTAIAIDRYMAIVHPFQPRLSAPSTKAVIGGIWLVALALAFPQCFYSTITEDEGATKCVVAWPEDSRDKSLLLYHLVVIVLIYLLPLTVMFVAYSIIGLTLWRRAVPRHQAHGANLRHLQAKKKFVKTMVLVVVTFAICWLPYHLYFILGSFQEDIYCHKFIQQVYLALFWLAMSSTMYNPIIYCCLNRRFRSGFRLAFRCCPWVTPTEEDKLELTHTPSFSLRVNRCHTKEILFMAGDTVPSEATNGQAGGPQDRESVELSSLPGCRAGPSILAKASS

[2] = Apparent permeability from apical to basolateral side of human Caco-2 cells at 100 uM

Structure (SMILES) | Imax (Cavia porcellus) [%] | Ki (Substance-K receptor) [nM] | pKb [1] | Papp A→B at 100 µM [2] [×10⁻⁶ cm/s]
Cc1ccc2cc(C(=O)NC3(C(=O)N[C@@H](CCC(=O)N4CCC(N(C)C5CCOCC5)CC4)Cc4ccccc4)CCCC3)sc2c1 | 90 | 0.316 | 7.8 | 
Cc1ccc2cc(C(=O)NC3(C(=O)N[C@@H](CCCN4CCN(Cc5cnc[nH]5)CC4)Cc4ccccc4)CCCC3)sc2c1 |  | 1 |  | 
CC/N=C(\N1CCOCC1)N1CCN(CCC[C@@H](Cc2ccccc2)NC(=O)C2(NC(=O)c3cc4ccc(C)cc4s3)CCCC2)CC1 |  | 0.794 | 8 | 
Cc1ccc2cc(C(=O)NC3(C(=O)N[C@@H](CCCC4CCN(CC5CCOCC5)CC4)Cc4ccccc4)CCCC3)sc2c1 | 67 |  | 7.9 | 
Cc1ccc2cc(C(=O)NC3(C(=O)N[C@@H](CCCN4CCN(C=O)CC4)Cc4ccccc4)CCCC3)sc2c1 |  | 2 | 7.8 | 
CCS(=O)(=O)N1CCN(CCC[C@@H](Cc2ccccc2)NC(=O)C2(NC(=O)c3cc4ccc(C)cc4s3)CCCC2)CC1 | 77 | 0.631 | 8 | 
Cc1ccc2cc(C(=O)NC3(C(=O)N[C@@H](CCC(=O)N4CCC(N5CCOCC5)CC4)Cc4ccccc4)CCCC3)sc2c1 |  | 2 | 7.8 | 
Cc1ccc2cc(C(=O)NC3(C(=O)N[C@@H](CCCN4CCN(C(=O)c5cccn5C)CC4)Cc4ccccc4)CCCC3)sc2c1 | 100 | 0.398 | 8.2 | 
Cc1ccc2cc(C(=O)NC3(C(=O)N[C@@H](CCCN4CCN(S(N)(=O)=O)CC4)Cc4ccccc4)CCCC3)sc2c1 | 62 | 0.631 | 7.8 | 
Cc1ccc2cc(C(=O)NC3(C(=O)N[C@@H](CCCN4CCN(Cc5ccccn5)CC4)Cc4ccccc4)CCCC3)sc2c1 | 90 | 0.158 | 7.9 | 
Cc1ccc2cc(C(=O)NC3(C(=O)N[C@@H](CCCN4CCN(Cc5cccs5)CC4)Cc4ccccc4)CCCC3)sc2c1 | 83 | 0.158 | 7.7 | 
Cc1ccc2cc(C(=O)NC3(C(=O)N[C@@H](CCCN4CCC(N(C)C5CCOCC5)CC4)Cc4ccccc4)CCCC3)sc2c1 |  | 1.26 | 7.8 | 
O=C(NC1(C(=O)N[C@@H](CCCN2CCN(CC3CCOCC3)CC2)Cc2ccccc2)CCCC1)c1ccc2ccccc2c1 |  | 0.316 | 8.2 | 14.6
Cc1ccc2cc(C(=O)NC3(C(=O)N[C@@H](CCCN4CCN(C(=O)N5CCOCC5)CC4)Cc4ccccc4)CCCC3)sc2c1 | 85 | 0.398 | 8.3 | 
Cc1ccc2cc(C(=O)NC3(C(=O)N[C@@H](CCCN4CCN(Cc5c[nH]cn5)CC4)Cc4ccccc4)CCCC3)sc2c1 | 83 |  | 8 | 
O=C(NC1(C(=O)N[C@@H](CCCN2CCN(CC3CCOCC3)CC2)Cc2ccccc2)CCCC1)c1ccc(-c2ccccc2)cc1 | 86 | 0.501 | 8.7 | 13.6
Cc1ccc2cc(C(=O)NC3(C(=O)N[C@H](Cc4ccccc4)CN4CCN(CC5CCOCC5)CC4)CCCC3)sc2c1 |  | 2 | 7.6 | 
Cc1ccc(-c2ccc(C(=O)NC3(C(=O)N[C@@H](CCCN4CCN(CC5CCOCC5)CC4)Cc4ccccc4)CCCC3)cc2)cc1 | 60 | 0.631 | 7.8 | 7.1
Cc1ccc2cc(C(=O)NC3(C(=O)N[C@@H](CCCN4CCN(c5ncccn5)CC4)Cc4ccccc4)CCCC3)sc2c1 | 63 | 0.794 | 8 | 
Cc1ccc2cc(C(=O)NC3(C(=O)N[C@@H](CCCN4CCC(CCO)CC4)Cc4ccccc4)CCCC3)sc2c1 | 47 | 2 | 8.1 | 
Cc1ccc2cc(C(=O)NC3(C(=O)N[C@@H](CCCN4CCN(C5CCOCC5)CC4)Cc4ccccc4)CCCC3)sc2c1 | 100 | 0.251 | 8.1 | 
Cc1ccc2cc(C(=O)NC3(C(=O)N[C@@H](CCC(=O)N4CCN(C5CCOCC5)CC4)Cc4ccccc4)CCCC3)sc2c1 | 99 | 0.0794 | 8.2 | 
COc1ccc2oc(C(=O)NC3(C(=O)N[C@@H](CCCN4CCN(CC5CCOCC5)CC4)Cc4ccccc4)CCCC3)cc2c1 | 98 | 0.631 | 7.4 | 8.6
Cc1ccc2cc(C(=O)NC3(C(=O)N[C@@H](CCCN4CCC(CN5CCOCC5)CC4)Cc4ccccc4)CCCC3)sc2c1 | 62 | 1 | 7.8 | 

Structure (SMILES) | Imax (Cavia porcellus) [%] | Ki (Substance-K receptor) [nM] | pKb [1] | Papp A→B at 100 µM [2] [×10⁻⁶ cm/s]
O=C(NC1(C(=O)N[C@@H](CCCN2CCN(CC3CCOCC3)CC2)Cc2ccccc2)CCCC1)c1cc2ccccc2o1 | 65 | 0.631 | 8.2 | 20.2
CCOCCCN1CCN(CCC[C@@H](Cc2ccccc2)NC(=O)C2(NC(=O)c3cc4ccc(C)cc4s3)CCCC2)CC1 |  | 0.316 | 7.2 | 
O=C(NC1(C(=O)N[C@@H](CCCN2CCN(CC3CCOCC3)CC2)Cc2ccccc2)CCCC1)c1cc2ccccc2s1 | 82 | 0.251 | 8.2 | 
Cc1ccc2cc(C(=O)NC3(C(=O)N[C@@H](CCCN4CCN(Cc5ccncc5)CC4)Cc4ccccc4)CCCC3)sc2c1 | 86 | 0.251 | 8.4 | 
Cc1ccc2cc(C(=O)NC3(C(=O)N[C@@H](CCCN4CCN(C(=O)C5CCOCC5)CC4)Cc4ccccc4)CCCC3)sc2c1 | 97 |  | 8.1 | 
Cc1ccc2cc(C(=O)NC3(C(=O)N[C@@H](COCCC4CCN(CC5CCOCC5)CC4)Cc4ccccc4)CCCC3)sc2c1 |  |  | 6.9 | 
Cc1ccc2cc(C(=O)NC3(C(=O)N[C@@H](COCC4CCN(CC5CCOCC5)CC4)Cc4ccccc4)CCCC3)sc2c1 | 46 | 0.631 | 7.6 | 
Cc1ccc2cc(C(=O)NC3(C(=O)N[C@@H](CCCN4CCN(c5ccccn5)CC4)Cc4ccccc4)CCCC3)sc2c1 | 76 | 0.631 | 7.8 | 
CO/N=C(\N1CCOCC1)N1CCN(CCC[C@@H](Cc2ccccc2)NC(=O)C2(NC(=O)c3cc4ccc(C)cc4s3)CCCC2)CC1 | 100 |  |  | 
Cc1ccc2cc(C(=O)NC3(C(=O)N[C@@H](CCCN4CCC(N5CCOCC5)CC4)Cc4ccccc4)CCCC3)sc2c1 |  | 0.501 | 7.8 | 
Cc1ccc2cc(C(=O)NC3(C(=O)N[C@@H](CCCN4CCN(S(=O)(=O)N5CCOCC5)CC4)Cc4ccccc4)CCCC3)sc2c1 | 97 | 0.501 | 8.4 | 
Cc1ccc2cc(C(=O)NC3(C(=O)N[C@@H](CCCN4CCC(C(=O)N5CCOCC5)CC4)Cc4ccccc4)CCCC3)sc2c1 | 81 | 0.794 | 7.8 | 
Cc1ccc2cc(C(=O)NC3(C(=O)N[C@@H](CCN4CCN(CC5CCOCC5)CC4)Cc4ccccc4)CCCC3)sc2c1 |  | 15.8 |  | 
Cc1ccc2cc(C(=O)NC3(C(=O)N[C@@H](CCCN4CCN(S(=O)(=O)C(C)C)CC4)Cc4ccccc4)CCCC3)sc2c1 | 85 | 0.501 | 7.9 | 
Cc1ccc2cc(C(=O)NC3(C(=O)N[C@@H](CCCN4CCN(Cc5ccc(F)cc5)CC4)Cc4ccccc4)CCCC3)sc2c1 | 66 | 0.126 | 8.2 | 
Cc1ccc2cc(C(=O)NC3(C(=O)N[C@@H](CCCN4CCN(Cc5cccnc5)CC4)Cc4ccccc4)CCCC3)sc2c1 | 84 | 0.316 | 8.2 | 
Cc1ccc2cc(C(=O)NC3(C(=O)N[C@@H](CCCN4CCN(S(=O)(=O)N(C)C)CC4)Cc4ccccc4)CCCC3)sc2c1 | 80 | 0.316 | 7.9 | 
Cc1ccc2cc(C(=O)NC3(C(=O)N[C@H](CCCN4CCN(CC5CCOCC5)CC4)Cc4ccccc4)CCCC3)sc2c1 |  | 0.631 | 7.7 | 
Cc1ccc2cc(C(=O)NC3(C(=O)N[C@@H](CCCN4CCN(Cc5nnn(C)n5)CC4)Cc4ccccc4)CCCC3)sc2c1 | 72 | 0.316 | 7.9 | 
Cc1ccc2cc(C(=O)NC3(C(=O)N[C@@H](/C=C/CN4CCN(CC5CCOCC5)CC4)Cc4ccccc4)CCCC3)sc2c1 | 72 | 0.501 | 8.2 | 
Cc1ccc2cc(C(=O)NC3(C(=O)N[C@@H](CCCN4CCN(Cc5ccsc5)CC4)Cc4ccccc4)CCCC3)sc2c1 | 88 | 0.158 | 8.2 | 
Cl.N[C@@H](CCC(=O)N1CCN(CC2CCOCC2)CC1)Cc1ccccc1 | 99 | 0.0794 | 7.9 | 
Cc1ccc2cc(C(=O)NC3(C(=O)N[C@@H](CCCN4CCN(Cc5ccoc5)CC4)Cc4ccccc4)CCCC3)sc2c1 | 67 | 0.158 | 8.2 | 
Cc1ccc2oc(C(=O)NC3(C(=O)N[C@@H](CCCN4CCN(CC5CCOCC5)CC4)Cc4ccccc4)CCCC3)cc2c1 | 100 | 0.398 | 8.7 | 
